Data on six molecules can be found in patent US4758597A, “Carenadiol and derivatives” (University Patents, Inc., priority 1987, dated 1988).

As usually defined, the ED50 is the dose at which the effect has come halfway, by size or by number of responders. For orientation: TD50 means the dose at which the toxic effect under study appears in half of the subjects.

For data set [1], the system named is genetically epilepsy prone rats. Put plainly: Audiogenic seizure (AGS) test, anticonvulsant activity. The data set is classed as in vivo, rat. The note with it: for ED50: Rattus norvegicus, 0.25 h, iv, rats, tested 15 minutes after injection, 95% confidence limits printed in parentheses on the next line, read-out: AGS ED50 (median effective anticonvulsant dose). On the procedure: (§1) With regard to the potential use of this family of compounds in the treatment of epilepsy, (+)-Carenadiol was evaluated in the audiogenic seizure (AGS-susceptible) rat model of eilepsy to assess its anticonvulsant activity, and the rat rotorod (ROT) paadigm was used to assess differential neurotoxicity (i.e., reflecting mainly sedation and/or incoordination), of this family of compounds.
(§2) For AGS tests, male and female, 150-225 gm, genetically epilepsy prone rats were used. For ROT tests, male and female, 150-225 gm. rats were used. CBD analogs (suspended in a vehicle of 10% polysorbate 80 and 90% distilled water) were injected intravenously and rats were tested 15 minutes later (a peak-effect time for both tests). In the AGS test, responses to sound were recorded as the presence or absence of seizure (i.e., generalized clonus or clonus and generalized flexion). In the ROT test, effects were measured as the ability or inability (i.e., neurotoxicity) of trained rats to remain on a revolving drum (rotorod) for 60 seconds.
(§3) Separate groups of 10-15 rats were used for each doses of drug tested and, typically, 3-6 doses of each analog were used for each AGS and ROT test. For appropriate dose-response data, median effective anticonvulsant (ED50) and neurotoxic (TD50) doses and regression line parameters were calculated by computer-assisted probit analysis. Subsequent calculations of 95% confidence limits (CL) and comparisons between slopes and median doses (i.e., ED50 and TD50 potency comparisons) were carried out using the method of Litchfield and Wilcoxon [J. Pharmacol Exp Ther 96:99-133(1949)].Protective indexes (PI =ROT-TD50/AGS-ED50) also were calculated.

Experiment in data set [2]: as above
The data set is classed as in vivo, rat. As to conditions: rat, in vivo; ratio of ROT TD50 to AGS ED50, iv, rats; read-out: PI (protective index = ROT-TD50/AGS-ED50). On the procedure:
as §1, §2, §3

Data set [3] in a line: Rat rotorod (ROT) test, differential neurotoxicity. In kind it is in vivo. As to conditions: iv, rats, tested 15 minutes after injection, 95% confidence limits printed in parentheses on the next line, read-out: ROT TD50 (median neurotoxic dose). The protocol:
as §1, §2, §3
A general note: Falling from the rotarod earlier than controls is read as motor impairment.

For data set [4] the following is noted: in man; cited from earlier work.
For another data set, the system named is laboratory animals. As to conditions: cited from earlier work.

As for `CCCCCc1cc(O)c(C2C=C(C)CC3C2C3(C)C)c(O)c1` (single isomer, unassigned; (+)) [(+)-5a], the ED50 in data set [1] came to 18.1 mg/kg. Further, in data set [1] (comparison in words), the “activity among the compounds synthesized and tested” value is recorded as “the most active”. In data set [2], the selectivity ratio at 0.25 h is 5.5. The TD50 at 0.25 h in data set [3] stood at 99.8 mg/kg.
With `CCCCCCC(C)(C)c1cc(O)c(C2C=C(C)CC3C2C3(C)C)c(O)c1` (single isomer, unassigned; (+)) [(+)-5b], the ED50 in data set [1] is 3.4 mg/kg. Moreover, the selectivity ratio at 0.25 h in data set [2] worked out at 1.1. For the same molecule, the TD50 at 0.25 h in data set [3] is 3.7 mg/kg.
In the case of `C=C(C)[C@@H]1CCC(C)=C[C@H]1c1c(O)cc(CCCCC)cc1O` [(-)-CBD, (-)-Cannabidiol], in data set [4], the antidystonic activity result is on record as “possibly antidystonic activity”; the antiepileptic efficacy result is on record as “antiepileptic efficacy”; the cannabimimetic activity entry was “no cannabimimetic activity”; the side effects result was “no recognized and undesired side effects”. Besides, the “activity in models that predict cannabimimetic activity” value in the data set with laboratory animals is “inactive”.
On to `NC(=O)N1c2ccccc2C=Cc2ccccc21` [Carbamazepine], for which the ED50 in data set [1] turned out to be 12.8 mg/kg. In data set [2], the selectivity ratio at 0.25 h came to 2.7. The TD50 at 0.25 h in data set [3] stood at 33.9 mg/kg.
Regarding `CCC1(c2ccccc2)C(=O)NC(=O)NC1=O` [Phenobarbital], in data set [1], the ED50 was determined as 10.8 mg/kg. In addition, the selectivity ratio at 0.25 h in data set [2] turned out to be 2.7. The TD50 at 0.25 h in data set [3] came to 28.9 mg/kg.
Regarding `O=C1NC(=O)C(c2ccccc2)(c2ccccc2)N1` [Phenytoin], in data set [1], the ED50 amounted to 14.7 mg/kg. The selectivity ratio at 0.25 h in data set [2] was found to be 1.6. For the same molecule, the TD50 at 0.25 h in data set [3] was found to be 23.9 mg/kg.
